Laboratory results: patent publication US20170234881A1, “METHODS OF DIAGNOSING AND TREATING CANCER” (INSERM ( INSTITUT NATIONAL DE LA SANTÉ ET DE LA RECHERCHE …, priority 2014, published 2017)

Key:
[1] = test system: TS/A cells; experiment: Cell invasion assay (matrigel-coated filters), TS/A; format: cell-based, mouse; settings: concentration-dependent, level reached
Description: FIG. 2. OCDO is a tumor promoter in vitro and in vivo and its inhibition contributes to the anti-tumor effects of Tam and DDA. (A, B) Histograms representing the effect of OCDO or 17β-estrogen (E2) on MCF7 (A) and TS/A (B) cell proliferation after 24 h treatment using a colorimetric immunoassay measuring BrDU incorporation in DNA (C, D) Histogram representing the effect of OCDO on MCF7 (C) and TS/A (D) cell invasion. Data are the mean of three separate experiments (±s.e.m), *P<0.05, **P<0.01, ***P<0.001 (Student's t-test). (E, F) Mice were implanted s.c. with MCF7 (E) or TS/A (F) cells and animals (8 per group) were treated s.c. every day starting on the day of implantation with either the solvent vehicle or OCDO (16 μg/kg for MCF7 or 50 μg/kg for TS/A). Animals were monitored for tumour growth twice a week. The data are representative of three independent experiments. The mean tumor volume±s.e.m is shown, *P<0.05, **P<0.01, ***P<0.001 (analysis of variance (ANOVA), Dunnett's post test). (G) Mean (±s.e.m) of Ki67 positive cell number determined from IHC staining of MCF7 tumor sections from (E), n=8, *P<0.05 (Student's t-test) using HistoQuant, Pannoramic Viewer (3DHistech). […]
Invasion assays were carried out using Bio-Coat migration chambers (BD Falcon) with 8 μm filters previously coated with matrigel. […] The entire membranes were mounted on glass slides, and were counted under a microscope. […]

[2] = test system: sh11HSD2 tumors; experiment: Growth of sh11HSD2 MCF7 tumors xenografted in mice; format: in vivo
Description: FIG. 7. Knock-down of 11βHSD2 decreases cell proliferation, invasion and survival in MCF7 cells as well as tumor growth and OCDO reverses these effects. shC or shHSD2 MCF7 cells were analyzed as followed: (A) The proliferation of sh-C or shHSD2 cells treated or not with OCDO 5 μM 24 h was measured using quantification of DNA BrDU incorporation as described in FIG. 2A. (B) The proliferation of sh-C or shHSD2 cells treated or not with increasing concentration of cortisone for 24 h was measured as in (A). (C) The invasiveness of sh-C or shHSD2 cells treated or not with OCDO 5 μM for 72 h was assayed using matrigel-coated filters. (D) the formation of colony by sh-C or shHSD2 cells treated or not with OCDO 1 μM was quantified as described in FIG. 6F. […] Animals were monitored for tumor growth twice a week. […] (F) Mean (±s.e.m) of Ki67 positive cell number determined from IHC staining of shC or shHSD2 MCF7 tumor sections from (E), n=8, *P<0.05 (Student's t-test) using HistoQuant, Pannoramic Viewer (3DHistech).
Exponentially growing MCF7, ShMCF7, E0771, MDA-MB231, MDA-MB468 and TS/A cells were collected, washed twice in PBS and resuspended in PBS. […] Animals were examined daily, and body weights were measured twice per week. In all the experiments, the tumor volume was determined by direct measurement with a caliper and was calculated using the formula (width^2×length)/2. […]

## CC(C)CCC[C@@H](C)[C@H]1CC[C@H]2[C@@H]3CC(=O)[C@@]4(O)C[C@@H](O)CC[C@]4(C)[C@H]3CC[C@]12C [OCDO, 6-oxo-cholestan-3β,5α-diol]
[1]
  invasiveness compared with the control: 2.3 fold
[2]; immunodeficient mice, subcutaneous OCDO 15 μg/kg, 5 days/week
  effect on growth of sh11HSD2 tumors: reversed the growth inhibition of sh11HSD2 tumors to a level similar to the growth of shC tumors
[2]; sh11HSD2 MCF7 tumors, OCDO treatment
  cell proliferation by KI67 staining of tumors: reversed the growth inhibition of sh11HSD2 tumors
